Measured values taken from publication PMC4718952, “A simple nonradioactive method for the determination of the binding affinities of antibodies induced by hapten bioconjugates for drugs of abuse” (Analytical and Bioanalytical Chemistry, 2015).

Experiments:
[1] = Stability of heroin and its metabolites in DPBS without sera; type: physicochemical
[2] = in humans, Fig. 1a; cited from earlier work
[3] = Stability of heroin and its metabolites in dilute mouse sera; settings: 24 h
plasma proteins [4] = test: Binding of D3-tracers to plasma proteins in dilute week 0 (preimmunized) sera by ED; type: in vitro ADME, mouse; settings: ≥1:400 dilution of week 0 (preimmunized) sera
Procedure: Week 0 and week 9 sera were considered as negative and anti-hapten sera, respectively. Anti-hapten sera solutions were prepared by diluting the sera in DPBS (1:400, 1:800, or 1:600). Dialysis buffer was prepared by diluting the corresponding negative sera in DPBS (1:400, 1:800, or 1:600). Competitive inhibitors with different initial concentrations were prepared in the dialysis buffer. For the test samples, anti-hapten sera/D3-tracer was run against the negative sera/inhibitors at the same sera dilution. […] For negative controls, negative sera/D3-tracer was run against the negative sera at the same sera dilution.

plasma proteins [5] = settings: neat plasma/sera; cited from earlier work

Compound: 6-acetylmorphine [6-AM]
- degradation in the absence of sera ([1]; DPBS pH 7.4, 4 °C): No degradation
- t1/2 [2]: 22 to 26 min
- hydrolysis of 6-AM in dilute sera ([3]; normal mouse sera, ≥1:200 dilutions, 4 °C): not observed

Compound: [2H]C([2H])([2H])N1CCC23c4c5ccc(O)c4OC2C(OC(C)=O)C=CC3C1C5 (stereo not shown) [D3-6-AM]
- binding to the plasma proteins (plasma proteins [4]): ~0%

Compound: CC(=O)Oc1ccc2c3c1O[C@H]1[C@@H](OC(C)=O)C=C[C@H]4[C@@H](C2)N(C)CC[C@@]341 [heroin]
- partial heroin hydrolysis ([1]; absence of sera, DPBS pH 7.4, 4 °C): ~20%
- % heroin remained intact ([1]; after 24 h in DPBS (− Sera), pH 7.4, 4 °C): 79.9 ± 2.71%
- plasma binding (plasma proteins [5]): ~35%
- t1/2 [2]: 3 to 4 min
- amount of intact heroin ([3]; 1:400 sera dilution with iso-OMPA and BNPP): ≥ 80%
- hydrolysis of heroin in dilute sera ([3]; normal mouse sera, all dilutions (1:25-1:400), 4 °C): extensive hydrolysis

Compound: [2H]C([2H])([2H])N1CCC23c4c5ccc(O)c4OC2C(O)C=CC3C1C5 (stereo not shown) [D3-morphine]
- binding to the plasma proteins (plasma proteins [4]): ~0%

Compound: CN1CC[C@]23c4c5ccc(O)c4O[C@H]2[C@@H](O)C=C[C@H]3[C@H]1C5 [morphine]
- degradation in the absence of sera ([1]; DPBS pH 7.4, 4 °C): No degradation
- degradation of morphine in dilute sera ([3]; normal mouse sera, ≥1:100 dilutions, 4 °C): not observed
